According to ChEMBL document CHEMBL1130241, “Design, synthesis, and biochemical evaluation of phosphonate and phosphonamidate analogs of glutathionylspermidine as inhibitors of glutathionylspermidine synthetase/amidase from Escherichia coli” (J Med Chem, 1997):
pKi: −log10 of the molar value.

Columns and labels:
[1] = target: Glutathionylspermidine synthetase/amidase (Escherichia coli) (UniProt P0AES0); assay: Inhibition of Glutathionylspermidine synthetase
[2] = system: Escherichia coli; assay: Inhibition of glutathionylspermidine amidase at 1 mM; not detectable
[3] = target: T1, Glutathionylspermidine synthase (Crithidia fasciculata, UniProt P90518); assay: Inhibition of Glutathionylspermidine synthetase. Values from different publications.; design: species or system Escherichia coli
T1 sequence (P90518 whole entry): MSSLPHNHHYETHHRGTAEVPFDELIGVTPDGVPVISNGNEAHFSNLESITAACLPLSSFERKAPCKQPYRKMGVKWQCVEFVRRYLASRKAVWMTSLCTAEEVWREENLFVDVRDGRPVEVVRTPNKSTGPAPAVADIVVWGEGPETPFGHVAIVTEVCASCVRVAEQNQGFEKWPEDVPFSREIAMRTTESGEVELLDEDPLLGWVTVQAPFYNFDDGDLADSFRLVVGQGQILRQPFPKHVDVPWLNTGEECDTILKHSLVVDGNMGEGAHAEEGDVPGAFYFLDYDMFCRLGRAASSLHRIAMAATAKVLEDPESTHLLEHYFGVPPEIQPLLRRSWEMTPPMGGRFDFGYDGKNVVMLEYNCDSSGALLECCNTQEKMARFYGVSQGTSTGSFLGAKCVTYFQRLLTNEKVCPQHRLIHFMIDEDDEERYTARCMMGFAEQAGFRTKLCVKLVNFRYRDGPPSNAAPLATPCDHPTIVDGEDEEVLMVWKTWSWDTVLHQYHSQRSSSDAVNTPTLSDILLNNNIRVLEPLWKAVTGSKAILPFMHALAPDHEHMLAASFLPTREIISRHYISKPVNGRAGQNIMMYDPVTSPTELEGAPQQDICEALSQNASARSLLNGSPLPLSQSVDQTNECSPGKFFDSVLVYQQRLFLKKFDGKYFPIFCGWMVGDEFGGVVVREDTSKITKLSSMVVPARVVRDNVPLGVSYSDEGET

[4] = system: Escherichia coli; assay: Inhibition of Glutathionylspermidine amidase at 1 mM compound concentration
[5] = target: Glutathionylspermidine synthetase/amidase (Escherichia coli) (UniProt P0AES0); assay: Percentage of inhibition of Glutathionylspermidine synthetase at 7.3 mM concentration
[6] = target: Glutathionylspermidine synthetase/amidase (Escherichia coli) (UniProt P0AES0); assay: Percentage of inhibition of Glutathionylspermidine synthetase at 1 mM concentration

Chain of Glutathionylspermidine synthetase/amidase (Escherichia coli) (P0AES0 whole entry, looked up): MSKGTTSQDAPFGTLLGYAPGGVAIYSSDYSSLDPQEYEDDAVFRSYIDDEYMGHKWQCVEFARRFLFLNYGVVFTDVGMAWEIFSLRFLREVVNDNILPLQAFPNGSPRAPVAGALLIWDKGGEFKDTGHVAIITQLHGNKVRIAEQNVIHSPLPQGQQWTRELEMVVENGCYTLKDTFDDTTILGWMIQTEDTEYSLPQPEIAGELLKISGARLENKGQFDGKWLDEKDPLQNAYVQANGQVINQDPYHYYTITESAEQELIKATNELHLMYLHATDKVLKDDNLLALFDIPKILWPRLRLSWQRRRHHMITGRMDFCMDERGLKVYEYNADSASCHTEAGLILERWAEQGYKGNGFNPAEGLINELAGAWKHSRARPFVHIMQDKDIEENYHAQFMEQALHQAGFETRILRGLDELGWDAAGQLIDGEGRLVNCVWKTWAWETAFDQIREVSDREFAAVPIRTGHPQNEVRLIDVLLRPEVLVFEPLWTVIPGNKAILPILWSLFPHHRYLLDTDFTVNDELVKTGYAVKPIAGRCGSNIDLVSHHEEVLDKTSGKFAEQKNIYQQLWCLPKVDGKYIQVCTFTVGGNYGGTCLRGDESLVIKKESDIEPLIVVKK

pKi [1] | inhibition [2] | inhibition [5] [%] | inhibition [6] [%] | SMILES | pKi [3] | inhibition [4] [%]
5.22 | not detectable | – | – | C[C@H](NC(=O)CC[C@H](N)C(=O)O)C(=O)NCP(=O)(O)OCCCNCCCCN | – | –
– | – | – | – | COP(=O)(CNC(=O)[C@H](C)NC(=O)CC[C@H](N)C(=O)O)NCCCNCCCCN (some centres not stated) | 4.62 | 3.4
– | – | 31.3 | 5.7 | CCCCNP(=O)(CNC(=O)[C@H](C)NC(=O)CC[C@H](N)C(=O)O)OC (some centres not stated) | – | 1.8
